# Assay results as given in article PMC11251039, “Harnessing cholesterol uptake of malaria parasites for therapeutic applications” (EMBO Molecular Medicine, 2024).
# pIC50: −log10 of the molar value. Where “and” joins values, the source holds several entries; their conditions need not be identical. Equal entries are not always repeated. Where two headings read alike, the source gives them in different places.
# Columns and labels:
# [1] = system: human embryonic kidney cells (HEK293); assay: Human embryonic kidney cell viability assay (MTT); type: cell-based; conditions: Homo sapiens; 96 h, HEK293; read-out: IC50, human embryonic kidney cell inhibition (viability)
# Procedure, shortened: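 HEK293 cells, 5,000 per well, exposed to serially diluted compound for 96 hours; 10 µg/mL cycloheximide as background control. Viability by MTT (0.45 mg/mL, 2 h), SDS solubilisation, absorbance at 570 nm.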
# [2] = system: asexual P. falciparum 3D7 wild-type parasites; assay: P. falciparum asexual growth inhibition assay (SYBR Safe DNA replication); type: cell-based, Plasmodium falciparum; conditions: for P. falciparum asexual growth, percentage of control: replicate values, source data Fig. 2B, listed as BC9B; for pIC50: Plasmodium falciparum, read-out: IC50, P. falciparum asexual growth inhibition
# Procedure, shortened: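 Sorbitol-synchronised ring-stage cultures at 1% parasitaemia and 1% haematocrit were exposed to 2-fold compound dilutions at 37 °C under microaerophilic conditions for 24, 48 or 72 h. Growth was read by SYBR Safe fluorescence of freeze-thaw lysates, with 200 nM chloroquine or artesunate defining background.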
# [3] = system: Toxoplasma gondii tachyzoites (RH strain); assay: Toxoplasma growth inhibition assay (tdTomato fluorescence, in HFF cells); type: cell-based; conditions: Toxoplasma gondii, HFF, 72 h; read-out: IC50, T. gondii tachyzoite growth inhibition
# Experimental: Fluorescence was measured daily with a fluorescence microplate reader for one week, and the background fluorescence from the time 0 reading was subtracted from all other measurements. […]
# Toxoplasma Growth Inhibition Assays:
# Growth inhibition was investigated as described previously (26). Fluorescent Toxoplasma gondii parasites were inoculated into an optical bottom 96-well plate containing confluent human foreskin fibroblast (HFF) host cells at a density of 2,000 parasites/well, with a serial dilution of each compound, or culture media/DMSO (0.1% v/v) alone. Plates were measured daily with a FluoStar Optima fluorescence plate reader at 540 nm excitation and 590 nm emission for one week, and the background fluorescence from the time 0 reading was subtracted from all other measurements. […]
# P. berghei liver stages = assay: Plasmodium berghei liver stage growth inhibition assay (luminescence, in Huh7 cells); conditions: for P. berghei liver stage growth, dose-response data points (Figure 3A): replicate data points; for P. berghei liver stage growth, dose-response data points (Figure 3A) / Figure 3E dose-response value (replicates): listed as BC9B
# Experimental: Growth inhibition or cell viability were assessed by incubation with a serial dilution of test compounds, solvent controls (DMSO, ethanol, ethyl acetate), or culture media alone in 96-well plates, with detection of fluorescence, luminescence, or absorbance in microplate readers after 24–96 h unless otherwise specified.
# Huh7 cells were seeded at a density of 10,000 cells per well of a 96-well plate, or 20,000 cells per collagen-coated coverslip. After 24 h, test compounds were added the wells were inoculated with P. berghei liver stage sporozoites dissected from infected A. stephensi salivary glands with 5000–10,000 sporozoites per well or 10,000–20,000 sporozoites per coverslip. Uninfected wells served as a control for background luminescence. Luminescence signal was measured 48 h post-invasion by addition of 1:1 ONE-Glo^TM substrate (Promega) with a luminescence microplate reader. Coverslips were fixed, stained, and imaged, with all parasites on each coverslip imaged and delineated as described (Petersen et al, [2017]) using Fiji ImageJ (Schindelin et al, [2012]). Data are presented as a percentage of the size or parasite number of the solvent control to normalize for differences between experiments.
# Growth inhibition data were normalised by subtracting background fluorescence, luminescence, absorbance, or percentage of cells from a no-growth or no-viability control (high drug concentration, no-parasite control, or time = 0 measurement as specified), and expressed as a percentage of the growth or cell percentage in the negative control (culture media alone or solvent control) at the indicated timepoint (or to the highest measurement reached during the assay for Fig. EV3).
# Plasmodium berghei ANKA Bergreen (22) or GFP-Luc (RMgm-29) (23), respectively
# expressing green fluorescent protein (GFP) or a GFP-Luciferase fusion protein, were
# maintained under routine conditions in SWR/J Mus musculus mice and Anopheles stephensi
# Growth inhibition of P. berghei liver-stages was investigated after infection of human
# hepatoma cells (Huh7) and subsequent growth for 48 hours at 37° C, 5% CO2 and 80%
# humidity. The day prior to infection, 10,000 Huh7 cells were seeded in dark-sided 96-well
# microplates (Greiner Bio One). On the day of infection, compounds or solvent controls
# (DMSO) were serially diluted in culture media and 5,000 – 10,000 Bergreen or GFP-Luc
# sporozoites were added per well following dissection from infected A. stephensi salivary
# glands. Uninfected wells served as control for background luminescence. To promote invasion,
# the plates were centrifuged at 1,550 g for 5 minutes. After 60 minutes, the media was
# completely replaced with fresh, prewarmed media with the matching drug concentrations.
# Media was partially replaced with new drug dilutions over the following two days. 48 hours
# post-infection, luminescence signal was measured by addition of 1:1 ONE-GloTM substrate
# (Promega) to the wells, followed by detection at 300 – 700 nm using a Synergy HTX plate
structure (smiles),measurement,setting,value
COc1cc(NC(C)CCCNC(=O)CCC(=O)OC(C)C)c2ncccc2c1 (stereo not shown) [PQ-link],pIC50,[1],4.88
same,"P. falciparum asexual growth, percentage of control","[2]; 0.390625000 uM, 24 h",112.3% and 89.93% and 91.19% and 112.1% and 102.3% and 68.21% and 112.6% and 108.2% and 99.03%
same,"P. falciparum asexual growth, percentage of control","[2]; 0.781250000 uM, 24 h",111.4% and 122.1% and 101.9% and 105.4% and 82.4% and 103% and 111.6% and 99.14% and 89.9%
same,"P. falciparum asexual growth, percentage of control","[2]; 1.562500000 uM, 24 h",124.5% and 109.9% and 95.57% and 96.52% and 118.5% and 100.1% and 113.4% and 107.6% and 105.7%
same,"P. falciparum asexual growth, percentage of control","[2]; 3.125000000 uM, 24 h",111% and 101.9% and 103% and 119.5% and 108.6% and 102.2% and 109.1% and 102.4% and 93.98%
same,"P. falciparum asexual growth, percentage of control","[2]; 6.250000000 uM, 24 h",79.77% and 100.5% and 104.2% and 100.4% and 95.65% and 80.04% and 97.39% and 93.98% and 89.23%
same,"P. falciparum asexual growth, percentage of control","[2]; 12.500000000 uM, 24 h",91.36% and 89.64% and 70.76% and 87.57% and 76.11% and 68.83% and 96.23% and 85.41% and 71.02%
same,"P. falciparum asexual growth, percentage of control","[2]; 25.000000000 uM, 24 h",68.25% and 69.29% and 40.14% and 53.66% and 42.59% and 27.83% and 74.48% and 57.35% and 79.45%
same,"P. falciparum asexual growth, percentage of control","[2]; 50.000000000 uM, 24 h",54.3% and 2.851% and -9.844% and -3.605% and -29.04% and -23.19% and 22.95% and 7.441% and 8.158%
same,pIC50,"[2]; 3D7, 48 h",4.66
same,pIC50,"[2]; 3D7, 72 h",4.79
same,pIC50,"[2]; 3D7, 24 h, starting at ring stages",4.60
same,pIC50,[3],4.57
same,"P. berghei liver stage growth, dose-response data points (Figure 3A)",P. berghei liver stages; 0.015241580 uM,92.27 and 99.03 and 108.7 and 82.7 and 111.9 and 105.4 and 99.3 and 85.25 and 115.4
same,"P. berghei liver stage growth, dose-response data points (Figure 3A)",P. berghei liver stages; 0.045724740 uM,97.1 and 81.64 and 78.74 and 103.7 and 110.1 and 105.2 and 93.19 and 87.52 and 92.15
same,"P. berghei liver stage growth, dose-response data points (Figure 3A)",P. berghei liver stages; 0.137174210 uM,100 and 94.2 and 80.68 and 93.41 and 113.2 and 98.29 and 109.9 and 94.24 and 87.26
same,Figure 3E dose-response value (replicates),P. berghei liver stages; 0.238281250 uM,98.59
same,"P. berghei liver stage growth, dose-response data points (Figure 3A)",P. berghei liver stages; 0.411522630 uM,112.6 and 99.03 and 80.68 and 102.2 and 100.8 and 100.3 and 103.8 and 90.84 and 80.37
same,Figure 3E dose-response value (replicates),P. berghei liver stages; 0.476562500 uM,90.54 and 104.6 and 95.37 and 97.54 and 101.7 and 100.2 and 97.21 and 100.9 and 86.29 and 94.55 and 90.62
same,"P. berghei liver stage growth, dose-response data points (Figure 3A)",P. berghei liver stages; 1.234567900 uM,102.9 and 94.2 and 112.6 and 111.7 and 103.5 and 88.53 and 119.6 and 97.91 and 82.29
same,Figure 3E dose-response value (replicates),P. berghei liver stages; 1.906250000 uM,91.51 and 91.73 and 86.54 and 84.53 and 94.62 and 101.5 and 100.5 and 102.9 and 93.23 and 96 and 85.81
same,"P. berghei liver stage growth, dose-response data points (Figure 3A)",P. berghei liver stages; 3.703703700 uM,97.1 and 64.25 and 91.3 and 55.79 and 60.08 and 47.34 and 73.56 and 51.31 and 52.36
same,Figure 3E dose-response value (replicates),P. berghei liver stages; 3.812500000 uM,95.8 and 93.79 and 78.58 and 83.98 and 89.72 and 104 and 93.76 and 101.5 and 80.15 and 95.42 and 85.86
same,Figure 3E dose-response value (replicates),P. berghei liver stages; 7.625000000 uM,98.29 and 86.67 and 78.83 and 80.78 and 88.54 and 106.8 and 100.5 and 90.89 and 82.41 and 82.35 and 77.49
same,"P. berghei liver stage growth, dose-response data points (Figure 3A)",P. berghei liver stages; 11.111111100 uM,24.64 and 16.91 and 28.5 and 18.53 and 18.77 and 20.08 and 31.94 and 26.35 and 21.2
same,Figure 3E dose-response value (replicates),P. berghei liver stages; 15.250000000 uM,60.3 and 56.28 and 80.98 and 77.04 and 83.07 and 85.06 and 90.81 and 88.28 and 61.89 and 72.05 and 69.51
same,Figure 3E dose-response value (replicates),P. berghei liver stages; 30.500000000 uM,25.91 and 29.38 and 68.25 and 66.32 and 65.97 and 65.87 and 62.35 and 59.29 and 31.73 and 40.4 and 41.06
same,"P. berghei liver stage growth, dose-response data points (Figure 3A)",P. berghei liver stages; 33.333333300 uM,3.382 (2×) and 4.348 and 16.15 and 16.87 and 15.2 and 10.82 and 11.34 and 9.511
same,Figure 3E dose-response value (replicates),P. berghei liver stages; 61.000000000 uM,6.18 and 4.905 and 12.31 and 10.74 and 14.16 and 15.86 and 12.88 and 14.9 and 2.822 and 2.591 and 2.429
same,"P. berghei liver stage growth, dose-response data points (Figure 3A)",P. berghei liver stages; 100.000000000 uM,-1.449 and -0.4831 and -2.415 and 1.984 and 3.77 and 1.865 and 3.403 and 2.705 and 2.007
same,pIC50,"P. berghei liver stages; Plasmodium berghei, Huh-7, 48 h, read-out: IC50, P. berghei liver stage growth inhibition",5.24
